Measurements: patent US10881653B2, “Tricyclic compounds and their use in the treatment of cancer” (The United States of America, as represented by the …, priority 2015, dated 2021)
Where a name gives a salt, the structure may show the parent alone.

Assays:
FaDu cells = conditions: mouse, in vivo, 15 mg/kg
Method: Fox Chase male severe combined immunodeficiency (SCID, Charles River, #250) mice were inoculated with 1×10^6 FaDu cells in PBS at a pre-shaved region located at the anterior lateral thoracic wall. After 13 days of growth, tumors were caliper measured and treatments were initiated. Mice were injected with 15 mg/kg of the compound of Example 1, or vehicle a total of nine times in a five-day span via i.v. tail injection. Upon the final dose, injections were performed subcutaneously (s.c.) due to pronounced hematomas at the tail injection site. Mouse health status was monitored daily, weight was measured, and tumor volume was recorded from caliper measurements. […] Tumor growth was normalized to day 0 caliper measurements, and treatment with the compound of Example 1 (N=6, p<0.01) was compared to vehicle (N=4) using a repeated measures ANOVA with a Dunnett's multiple comparison post test.

SK-MEL-5 = assay: Cell growth inhibition GI50; type: cell-based; conditions: Homo sapiens, Melanoma
Method: (§1) Cell lines were plated 2000 cells/well in 96-well black optical plates in the presence of 10% FBS media containing 25 nM selenite. The following day cells were treated with various concentrations of the compound of Example 1 (0.1% DMSO final) and incubated for 72 hrs. After the incubation Cell-Quanti Blue reagent was added to each well and incubated for additional 3 hrs. Fluorescence was read ex:530 nm/em:590 nm, and percent of viability was determined using DMSO vehicle and no cell (blank) controls.
(§2) Further results obtained in similar experiments were as indicated below (GI50 refers to concentration of compound yielding 50% growth inhibition; E denotes an exponent to the base 10).

NCI-H23 = assay: Cell growth inhibition GI50; type: cell-based; conditions: Homo sapiens, Non-Small Cell Lung Cancer
Method: as §1, §2

NCI-H460 = assay: Cell growth inhibition GI50; type: cell-based; conditions: Homo sapiens, Non-Small Cell Lung Cancer
Method: as §1, §2

PC-3 = assay: Cell growth inhibition GI50; type: cell-based; conditions: Homo sapiens, Prostate Cancer
Method: as §1, §2

MDA-MB-231/ATCC = assay: Cell growth inhibition GI50; type: cell-based; conditions: Homo sapiens, Breast Cancer
Method: as §1, §2

786-0 = assay: Cell growth inhibition GI50; type: cell-based; conditions: Homo sapiens, Renal Cancer
Method: as §1, §2

MCF7 = assay: Cell growth inhibition GI50; type: cell-based; conditions: Homo sapiens, Breast Cancer
Method: as §1, §2

RXF 393 = assay: Cell growth inhibition GI50; type: cell-based; conditions: Homo sapiens, Renal Cancer
Method: as §1, §2

BT-549 = assay: Cell growth inhibition GI50; type: cell-based; conditions: Homo sapiens, Breast Cancer
Method: as §1, §2

NCI-H226 = assay: Cell growth inhibition GI50; type: cell-based; conditions: Homo sapiens, Non-Small Cell Lung Cancer
Method: as §1, §2

OVCAR-8 = assay: Cell growth inhibition GI50; type: cell-based; conditions: Homo sapiens, Ovarian Cancer
Method: as §1, §2

SK-MEL-2 = assay: Cell growth inhibition GI50; type: cell-based; conditions: Homo sapiens, Melanoma
Method: as §1, §2

T-47D = assay: Cell growth inhibition GI50; type: cell-based; conditions: Homo sapiens, T47D, Breast Cancer
Method: as §1, §2

SK-OV-3 = assay: Cell growth inhibition GI50; type: cell-based; conditions: Homo sapiens, Ovarian Cancer
Method: as §1, §2

TK-10 = assay: Cell growth inhibition GI50; type: cell-based; conditions: Homo sapiens, Renal Cancer
Method: as §1, §2

SK-MEL-28 = assay: Cell growth inhibition GI50; type: cell-based; conditions: Homo sapiens, Melanoma
Method: as §1, §2

NCI-H522 = assay: Cell growth inhibition GI50; type: cell-based; conditions: Homo sapiens, Non-Small Cell Lung Cancer
Method: as §1, §2

ACHN = assay: Cell growth inhibition GI50; type: cell-based; conditions: Homo sapiens, Renal Cancer
Method: as §1, §2

COLO 205 = assay: Cell growth inhibition GI50; type: cell-based; conditions: Homo sapiens, Colon Cancer
Method: as §1, §2

SNB-75 = assay: Cell growth inhibition GI50; type: cell-based; conditions: Homo sapiens, CNS Cancer
Method: as §1, §2

OVCAR-5 = assay: Cell growth inhibition GI50; type: cell-based; conditions: Homo sapiens, Ovarian Cancer
Method: as §1, §2

HCT-15 = assay: Cell growth inhibition GI50; type: cell-based; conditions: Homo sapiens, Colon Cancer
Method: as §1, §2

OVCAR-3 = assay: Cell growth inhibition GI50; type: cell-based; conditions: Homo sapiens, Ovarian Cancer
Method: as §1, §2

MOLT-4 = assay: Cell growth inhibition GI50; type: cell-based; conditions: Homo sapiens, Leukemia
Method: as §1, §2

CAKI-1 = assay: Cell growth inhibition GI50; type: cell-based; conditions: Homo sapiens, Renal Cancer
Method: as §1, §2

SF-539 = assay: Cell growth inhibition GI50; type: cell-based; conditions: Homo sapiens, CNS Cancer
Method: as §1, §2

SF-295 = assay: Cell growth inhibition GI50; type: cell-based; conditions: Homo sapiens, CNS Cancer
Method: as §1, §2

HS 5781 = assay: Cell growth inhibition GI50; type: cell-based; conditions: Breast Cancer
Method: as §1, §2

A549/ATCC = assay: Cell growth inhibition GI50; type: cell-based; conditions: Homo sapiens, Non-Small Cell Lung Cancer
Method: as §1, §2

HCT-116 = assay: Cell growth inhibition GI50; type: cell-based; conditions: Homo sapiens, Colon Cancer
Method: as §1, §2

SR = assay: Cell growth inhibition GI50; type: cell-based; conditions: Homo sapiens, Leukemia
Method: as §1, §2

MALME-3M = assay: Cell growth inhibition GI50; type: cell-based; conditions: Homo sapiens, Melanoma
Method: as §1, §2

HCC-2998 = assay: Cell growth inhibition GI50; type: cell-based; conditions: Homo sapiens, Colon Cancer
Method: as §1, §2

UACC-257 = assay: Cell growth inhibition GI50; type: cell-based; conditions: Homo sapiens, Melanoma
Method: as §1, §2

RPMI-8226 = assay: Cell growth inhibition GI50; type: cell-based; conditions: Homo sapiens, Leukemia
Method: as §1, §2

UO-31 = assay: Cell growth inhibition GI50; type: cell-based; conditions: Homo sapiens, Renal Cancer
Method: as §1, §2

HT29 = assay: Cell growth inhibition GI50; type: cell-based; conditions: Homo sapiens, HT-29, Colon Cancer
Method: as §1, §2

NCI/ADR-RES = assay: Cell growth inhibition GI50; type: cell-based; conditions: Homo sapiens, Ovarian Cancer
Method: as §1, §2

EKVX = assay: Cell growth inhibition GI50; type: cell-based; conditions: Homo sapiens, Non-Small Cell Lung Cancer
Method: as §1, §2

SN12C = assay: Cell growth inhibition GI50; type: cell-based; conditions: Homo sapiens, Renal Cancer
Method: as §1, §2

LOX IMVI = assay: Cell growth inhibition GI50; type: cell-based; conditions: Homo sapiens, Melanoma
Method: as §1, §2

HOP-62 = assay: Cell growth inhibition GI50; type: cell-based; conditions: Homo sapiens, Non-Small Cell Lung Cancer
Method: as §1, §2

SMILES: O=C1C=C[C@H]2[C@@H]3C(=O)N(c4ccccc4)C(=O)[C@@H]3[C@@H]1N2Cc1ccccc1 (relative stereo) [Example 1, exo-11-Benzyl-4-phenyl-4,11-diazatricyclo[5.3.1.0^2,6]undec-9-ene-3,5,8-trione Trifluoroacetate]
- Signs of general or systemic toxic effects (FaDu cells): no overt signs of general or systemic toxic effects in normal cells or tissues
- GI50 (SK-MEL-5): 3.56 µM
- GI50 (NCI-H23): 5.37 µM
- GI50 (NCI-H460): 3.49 µM
- GI50 (PC-3): 4.68 µM
- GI50 (MDA-MB-231/ATCC): 5.45 µM
- GI50 (786-0): 1.69 µM
- GI50 (MCF7): 3.19 µM
- GI50 (RXF 393): 2.42 µM
- GI50 (BT-549): 3.45 µM
- GI50 (NCI-H226): 7.26 µM
- GI50 (OVCAR-8): 2.88 µM
- GI50 (SK-MEL-2): 4.37 µM
- GI50 (T-47D): 4.92 µM
- GI50 (SK-OV-3): 13.2 µM
- GI50 (TK-10): 8.07 µM
- GI50 (SK-MEL-28): 3.01 µM
- GI50 (NCI-H522): 2.68 µM
- GI50 (ACHN): 3.36 µM
- GI50 (COLO 205): 5.47 µM
- GI50 (SNB-75): 4.19 µM
- GI50 (OVCAR-5): 6.75 µM
- GI50 (HCT-15): 1.74 µM
- GI50 (OVCAR-3): 3.44 µM
- GI50 (MOLT-4): 1.72 µM
- GI50 (CAKI-1): 4.09 µM
- GI50 (SF-539): 1.66 µM
- GI50 (SF-295): 6.41 µM
- GI50 (HS 5781): 3.51 µM
- GI50 (A549/ATCC): 14.9 µM
- GI50 (HCT-116): 1.56 µM
- GI50 (SR): 1.87 µM
- GI50 (MALME-3M): 4.62 µM
- GI50 (HCC-2998): 7.94 µM
- GI50 (UACC-257): 3.22 µM
- GI50 (RPMI-8226): 1.59 µM
- GI50 (UO-31): 3.42 µM
- GI50 (HT29): 1.79 µM
- GI50 (NCI/ADR-RES): 2.55 µM
- GI50 (EKVX): 7.78 µM
- GI50 (SN12C): 1.64 µM
- GI50 (LOX IMVI): 1.61 µM
- GI50 (HOP-62): 1.38 µM
